As a reminder, the IC50 is the concentration that inhibits the measured activity by half.

Among the data in ChEMBL document CHEMBL3804830, “Efficient synthesis of new antiproliferative steroidal hybrids using the molecular hybridization approach” (Eur J Med Chem, 2016) are IC50 values, retold here.

The test system of one test is SH-SY5Y. The test is described as follows: Antiproliferative activity against human SH-SY5Y cells assessed as cell growth inhibition after 72 hrs by MTT assay. It counts as functional, cell-based. (Tetrazolium assays rely on reduction of a dye to a coloured formazan, in cell work by metabolically active cells.)
The nature of test [1]: Antiproliferative activity against human U87 cells assessed as cell growth inhibition after 72 hrs by MTT assay. It counts as functional, cell-based, U-87MG ATCC. The settings on record: U-87 MG.
The nature of test [2]: Antiproliferative activity against human EC109 cells assessed as cell growth inhibition after 72 hrs by MTT assay. It counts as functional, cell-based. The settings on record: ECa-109, 72 h.
Test [3] is described as follows: Antiproliferative activity against human MGC803 cells assessed as cell growth inhibition after 72 hrs by MTT assay. It counts as functional, cell-based. The settings on record: MGC-803, 72 h.
In the next test the test system is MCF7. In words: cells. The settings on record: Homo sapiens, MCF7, 72 h.

Each structure is given as a SMILES string.

Description for MCF7: Antiproliferative activity against human MCF7 cells assessed as cell growth inhibition after 72 hrs by MTT assay

On to `C[C@]12CC[C@H](OC(=O)Cn3cc(Cn4cc(F)c(=O)n(Cc5cn(CC(=O)O[C@H]6CC[C@@]7(C)C(=CC[C@@H]8[C@@H]7CC[C@]7(C)C(=O)CC[C@@H]87)C6)nn5)c4=O)nn3)CC1=CC[C@@H]1[C@@H]2CC[C@]2(C)C(=O)CC[C@@H]12`, for which the half-inhibitory concentration (IC50) (in the test with SH-SY5Y; in test [1]; in test [2]; in test [3]; in the test on MCF7) was over 128 µM throughout.
As for `C[C@]12CC[C@H](OC(=O)Cn3cc(CN4C(=O)C(=O)c5c(Br)cccc54)nn3)CC1=CC[C@@H]1[C@@H]2CC[C@]2(C)C(=O)CC[C@@H]12`, the half-maximal inhibitory concentration (IC50) is over 128 µM in the test with SH-SY5Y; 21.3 µM in test [1]; 78.4 µM in test [2]; 26.4 µM in test [3]; over 128 µM in the test on MCF7.
On to `Cc1ccc(/C=C/C(=O)c2ccc(OCc3cn(CC(=O)O[C@H]4CC[C@@]5(C)C(=CC[C@@H]6[C@@H]5CC[C@]5(C)C(=O)CC[C@@H]65)C4)nn3)cc2)cc1`, for which the half-inhibitory concentration (IC50) with SH-SY5Y was 50.1 µM; in test [1], over 128 µM; in test [2], over 128 µM; in test [3], over 128 µM; in the test with MCF7, 73.3 µM.
As to `Cc1ccc(OCc2cn(CC(=O)O[C@H]3CC[C@@]4(C)C(=CC[C@@H]5[C@@H]4CC[C@]4(C)C(=O)CC[C@@H]54)C3)nn2)cc1`, the IC50 in the test with SH-SY5Y came to 26.9 µM; in test [1], 18.5 µM; in test [2], 23.9 µM; in test [3] it was 21.6 µM; in the test on MCF7, 38.6 µM.
In the same order, the values of `C[C@]12CC[C@H](OC(=O)Cn3cc(COc4ccc(/C=C/C(=O)c5ccccc5)cc4)nn3)CC1=CC[C@@H]1[C@@H]2CC[C@]2(C)C(=O)CC[C@@H]12` are 75 µM, over 128 µM, 118 µM, over 128 µM and over 128 µM.
